Five compounds from patent US4902686A, “Tricyclic heterocyclic compounds and their use in treating benzodiazepin receptor-related ailments” (A/S Ferrosan, priority 1987, dated 1990) can be followed below.

For the assay, the system named is benzodiazepine receptors. Briefly: in vivo displacement of 3H-flunitrazepam from brain benzodiazepine receptors in mice. The following applies: i.p. test substance 15 min before 3H-flunitrazepam i.v., dose reducing specific forebrain binding to 50% of control. More on the design: species or system mice (female, NMR). An excerpt: The pharmaceutical properties of the compounds of the invention can be illustrated by determining their capability for displacing radioactive labelled flunitrazepam from benzodiazepine receptors.
The displacement activity of the compounds of the invention may be found by determining the ED50 value. The ED50 value represents the dose (mg/kg) of a test substance which causes the specific binding of flunitrazepam to benzodiazepine receptors in a living brain to be reduced to 50% of the control value.
Such an in vivo test is carried out as follows:
Principle. Twenty minutes after a dose of ^3 H-flunitrazepam (^3 H-FNM) (200μCi/kg, i.v.) the amount of specific ^3 H-FNM binding to brain benzodiazepine receptors has reached its maximal value.
Test procedure. Suspensions of test substances (2 mg/ml) are prepared in 5% Duphasol-X (TM Duphar, castor oil-ethylene oxide derivative for emulsifying and solubilizing oil and other water-insoluble substances) by sonification for 10 min using a Branson B15 microtip ultrasonifier (setting 7). Groups of three mice (female, NMR, 18-22 grams) are injected with the test substance at 100 mg/kg intraperitoneally. Fifteen minutes after test substance administration the mice are challenged with 4 μCi intravenously of ^3 H-FNM (70-90 Ci/mole) in 200 μl physiological saline. Twenty minutes after ^3 H-FNM administration mice are sacrificed by decapitation, the forebrains rapidly excised (within 30 sec) and homogenized in 12 ml of icecold 25 mM KH2 PO4, pH 7.1, using an Ultra-Turrax homogenizer fitted with an N 10 shaft. Two aliquots of 1 ml are immediately filtered through Whatman GF/C glassfibre filters and washed with 2×5 ml of the above mentioned buffer. The amounts of radioactivity on the filters are determined by conventional scintillation counting. One group of untreated mice serves as control. One to three mice are injected with 25 μg/kg clonazepam i.p. 30 minutes before ^3 H-FNM to determine the amount of non-specific ^3 H-FNM binding, which should be between 8-15% of total binding. When doses of 100 mg/kg inhibit more than 50% of specific ^3 H-flunitrazepam binding; test substances are administered in doses, which are factors of 3.16 times lower than 100 mg/kg. The ED50 for a test substance is defined as that dose which inhibits 50% of specific ^3 H-FNM binding. Specific binding is the amount of binding in controls minus the amount binding in clonazepam-treated mice.
Results. The ED50 value is determined from dose response curves. If only one dose of test substance is administered the ED50 value is calculated as follows, provided that the inhibition of specific binding is within the range of 25-75%: [formula] where Co is specific binding in controls and Cx is specific binding in mice treated with test substance.
Background: In a radioligand displacement assay an active substance lowers the binding of a labelled ligand.
Take `Cc1nc(-c2ncn3c4cccc(C#C[Si](C)(C)C)c4c(=O)n(C)c23)no1` [4,5-Dihydro-4-methyl-3-(5-methyl-1,2,4-oxadiazol-3-yl)-5-oxo-6-trimethylsilylethynyl-imidazo(1,5-a)quinazoline]: the “in vivo bind. ED50” value turned out to be 3.7 mg/kg. On to `CCn1c(=O)c2c(-c3noc(C4CC4)n3)ncn2c2cccnc21`, for which the “in vivo bind. ED50” value came to 0.7 mg/kg. With `Cn1c(=O)c2c(Oc3ccc(F)cc3)cccc2n2cnc(-c3noc(C4CC4)n3)c12` the figure was 2.9 mg/kg; with `Cn1c(=O)c2c(-c3nc(C4CC4)no3)ncn2c2cccnc21`, 0.9 mg/kg; with `CCn1c(=O)c2c(-c3nc(C4CC4)no3)ncn2c2ccccc21`, 1.4 mg/kg.
